Experimental data published in paper PMC13541837, “High-yield production and functional analysis of novel rhizobial-type glutaminase-free L-asparaginase from Paenibacillus thiaminolyticus” (Folia Microbiologica, 2025).

Legend:
ASN339Pt iso 1 [1] = molecular target: T1, ASN339Pt iso 1 (Paenibacillus thiaminolyticus, UniProt A0AAP9J308); assay: ammonia release, Nessler's reagent, […] nm; modified substrate inhibition model (Eq. […], n = […]); format: biochemical; details: 100 mM Tris pH 9.0, 37 °C, 10 min (standard assay); L-asparagine 1.9-145 mmol L^-1; fit with substrate inhibition; substrate inhibition constant, two additional substrate molecules (n = 2), active sit
T1 construct: gene M5W83_23570; motifs RSSSKPVQAL and NCSGKHLGV; not isoenzyme 2 WP_087440700.1

ASN339Pt iso 1 [2] = molecular target: T1, ASN339Pt iso 1; assay: as above; format: biochemical; details: 100 mM Tris pH 9.0, 37 °C, 10 min (standard assay); L-asparagine 1.9-145 mmol L^-1; fit with substrate inhibition; read-out: Results (according to Eq. (2))
[3] = molecular target: L-asparaginase from Paenibacillus thiaminolyticus (isoenzyme 1) (Paenibacillus thiaminolyticus); assay: SEC; HiPrep 16/60 Sephacryl S-100 HR, flow rate 0.5 mL/min, 50 mM phosphate (K+) buffer pH 8.0; standards lysozyme (14 kDa), amylase (55 kDa), aldolase (160 kDa)

T1 sequence (A0AAP9J308 entry or part of it): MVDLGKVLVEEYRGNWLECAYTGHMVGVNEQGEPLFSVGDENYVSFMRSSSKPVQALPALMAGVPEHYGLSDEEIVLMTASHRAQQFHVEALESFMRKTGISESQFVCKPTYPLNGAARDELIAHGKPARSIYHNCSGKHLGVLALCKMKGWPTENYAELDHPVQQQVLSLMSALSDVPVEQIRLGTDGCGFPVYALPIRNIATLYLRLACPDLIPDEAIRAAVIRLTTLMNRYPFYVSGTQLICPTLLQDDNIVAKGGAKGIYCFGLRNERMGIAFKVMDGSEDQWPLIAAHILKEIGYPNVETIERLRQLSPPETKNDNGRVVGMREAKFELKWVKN

| Results (according to Eq. (2)) (ASN339Pt iso 1 [1]) [mmol/L] | Km (ASN339Pt iso 1 [2]) [mM] | stoichiometry N [3] | Molecule |
| --- | --- | --- | --- |
| 32 ± 5 | 26 ± 8 | – | NC(=O)C[C@H](N)C(=O)O [L-asparagine] |
| – | – | 2 | L-asparaginase from Paenibacillus thiaminolyticus (isoenzyme 1) |
